Results on 2 compounds are retold here after patent US20210323901A1, “METHOD OF STORING AND/OR TRANSPORTING OXO ALCOHOL” (SABIC GLOBAL TECHNOLOGIES B.V., priority 2018, published 2021).

Series [1] in a line: Stability: aldehyde impurity levels in 2-ethylhexanol admixed with antioxidant, heated at 50° C., analysed by GC. It counts as physicochemical. The note with it: 10 ppm in 2-ethylhexanol, heated conditions (50° C.). As for the experimental part:
Experimental trials were conducted in accordance with the present method. The effects of antioxidants on aldehyde impurity levels in 2-ethlyhexanol were analyzed. A fixed volume of 2-ethylhexanol was admixed with an antioxidant and was heated at 50° C. for three weeks in a hot metal block. The 50° C. temperature mimicked harsh weather conditions during which accelerated autoxidation can occur. At the end of each week (intervals of 168 hours), a sample was drawn and analyzed using gas chromatography (GC). A control sample (where antioxidant was not added) was also analyzed. Lowinox™ CA22 was further examined at lower concentrations of 10 ppm and 20 ppm.

Series [2] can be described thus: Color analysis of plasticizers made from 2-ethylhexanol with antioxidant (Platinum-Cobalt Scale, ASTM D1209). It is filed as physicochemical. As for the experimental part:
The oxo alcohol 2-ethylhexanol was mixed with different antioxidants (Anox™ 1315 and Lowinox™ CA22). Plasticizers dioctyl phthalate (DOP) and/or trioctyl trimellitate (TOTM) were then synthesized using the different 2-ethylhexanol mixtures. The DOP plasticizer was produced using a 2-ethylhexanol to phthalic acid molar ratio of 2.35 to 1. The TOTM plasticizer was produced using a 2-ethylhexanol to […] molar ratio of 3.5 to 1. The plasticizers were synthesized a temperature of 210° C. for a period of 4 hours. Phosphorous-based antioxidants, nitrogen-based antioxidants, and sulfur-based antioxidants were all found to be problematic. For example, it was observed during downstream application that when phosphorus-based antioxidants were used, initially poor solubility in the oxo alcohol was a problem and then corrosion of the reactor. Not to be limited by theory, it is believed that during the production of the plasticizers, the phosphorus-based antioxidant would be hydrolyzed, producing phosphorus acid, which corroded the reactor. Nitrogen-based antioxidants and sulfur-based antioxidants, on the other hand, adversely affected the color of the resultant plasticizers.
Color analysis of the resulting plasticizers was conducted using the Platinum-Cobalt Scale in accordance with ASTM D1209, as updated in 2011. The best in class specification for TOTM plasticizer is a score of 30 and for the DOP plasticizer is a score of 25 on the Platinum-Cobalt scale. As is shown in Table 3, trioctyl trimellitate and dioctyl phthalate were produced using 2-ethylhexanol comprising the specified antioxidant.

Series [3] in a line: Solubility of antioxidants in 2-ethylhexanol. The note with it: 25° C., amount varied from 100 ppm to 1,000 ppm. The procedure:
The solubility of different antioxidants in oxo alcohol was analyzed. Alkanox™ 240, Lowinox™ CA22, and Anox™ 1315, were added to 2-ethylhexanol.

Where [4] appears, read: 2-ethylhexanol with 10 ppm antioxidant.

On to `Cc1cc(O)c(C(C)(C)C)cc1C(C)CC(c1cc(C(C)(C)C)c(O)cc1C)c1cc(C(C)(C)C)c(O)cc1C` (stereo not drawn) [Lowinox™ CA22, 1,1,3-tris(2′-methyl-4′-hydroxy-5′-t-butylphenyl)butane], for which the “Time for which aldehyde growth was stopped” value in series [1] is “over 3 weeks”. Besides, in series [2] (setting [4]), the “Platinum-Cobalt score of resulting DOP” value amounted to 20 and the “Platinum-Cobalt score of resulting TOTM” value amounted to 28. Besides, the “Platinum-Cobalt score of resulting TOTM” value in series [2] (2-ethylhexanol with 50 ppm antioxidant) was found to be 30. Also, in series [3], the “Solubility in 2-ethylhexanol” value is “soluble”.
For `CC(C)(C)c1ccc(OP(Oc2ccc(C(C)(C)C)cc2C(C)(C)C)Oc2ccc(C(C)(C)C)cc2C(C)(C)C)c(C(C)(C)C)c1` [Alkanox™ 240, phenol, 2,4-bis(1,1-dimetylethyl)-phosphite (3:1)], in series [3], the “Solubility in 2-ethylhexanol” value is reported as “not soluble”.
